We go through 1 compound from article PMC5218480 (PLoS ONE, 2017).

The subject of this assay is MV-4-11 cells. Briefly: Gene expression microarray analysis (Affymetrix PrimeView) and GSEA. The class given is cell-based, human. Details: RFU PODN (11730768_x_at) / Fold change /veh PODN (11730768_x_at) / RFU LINC00158 (11744669_a_at) / Fold change /veh LINC00158 (11744669_a_at) / RFU DUSP10 (11751237_a_at) / Fold change /veh DUSP10 (11751237_a_at) / RFU ID3 (11757404_x_at) / Fold change /veh ID3 (11757404_x_at) / RFU PLEKHG5 (11737974_s_at) / Fold change /veh PLEKHG5 (11737974_s_at) / RFU LRRC4B (11730491_at) / Fold change /veh LRRC4B (11730491_at) / RFU GIMAP4 (11747438_a_at) / Fold change /veh GIMAP4 (11747438_a_at) / RFU KRT8 (11758183_x_at) / Fold change /veh KRT8 (11758183_x_at) / RFU CNN1 (11734310_a_at) / Fold change /veh CNN1 (11734310_a_at) / RFU VPS37D (11726825_at) / Fold change /veh VPS37D (11726825_at) / RFU C10orf10 (11716522_x_at) / Fold change /veh C10orf10 (11716522_x_at) / RFU KIR2DL2 /// KIR2DL4 /// KIR2DL5A /// KIR2DL5B /// KIR2DS1 /// KIR2DS2 /// KIR2DS3 /// KIR2DS4 /// KIR3DL3 /// KIR3DL3 /// KIR3DS1 (11738374_at) / Fold change /veh KIR2DL2 /// KIR2DL4 /// KIR2DL5A /// KIR2DL5B /// KIR2DS1 /// KIR2DS2 /// KIR2DS3 /// KIR2DS4 /// KIR3DL3 /// KIR3DL3 /// KIR3DS1 (11738374_at) / RFU C1QL1 (11718748_at) / Fold change /veh C1QL1 (11718748_at) / RFU TMPRSS4 (11747572_a_at) / Fold change /veh TMPRSS4 (11747572_a_at) / RFU HAMP (11756126_x_at) / Fold change /veh HAMP (11756126_x_at) / RFU RNFT2 (11725882_a_at) / Fold change /veh RNFT2 (11725882_a_at) / RFU NR4A2 (11747474_a_at) / Fold change /veh NR4A2 (11747474_a_at) / RFU ABCC12 (11746883_a_at) / Fold change /veh ABCC12 (11746883_a_at) / RFU TMEM136 (11760407_x_at) / Fold change /veh TMEM136 (11760407_x_at) / RFU CLDN22 /// WWC2 (11732394_at) / Fold change /veh CLDN22 /// WWC2 (11732394_at) / RFU HLA-DPB1 (11760878_x_at) / Fold change /veh HLA-DPB1 (11760878_x_at) / RFU SPINT1 (11716480_a_at) / Fold change /veh SPINT1 (11716480_a_at) / RFU GAP43 (11754022_s_at) / Fold change /veh GAP43 (11754022_s_at) / RFU A4GNT (11735810_at) / Fold change /veh A4GNT (11735810_at) / RFU PRB3 (11715151_x_at) / Fold change /veh PRB3 (11715151_x_at) / RFU TUBB4B (11761932_at) / Fold change /veh TUBB4B (11761932_at) / RFU CAPN14 (11732068_a_at) / Fold change /veh CAPN14 (11732068_a_at) / RFU TMCC2 (11721928_a_at) / Fold change /veh TMCC2 (11721928_a_at) / RFU IRGQ (11745062_a_at) / Fold change /veh IRGQ (11745062_a_at) / RFU FAM174B (11720279_a_at) / Fold change /veh FAM174B (11720279_a_at) / RFU TMPRSS4 (11748680_a_at) / Fold change /veh TMPRSS4 (11748680_a_at) / RFU FAM212B (11763350_a_at) / Fold change /veh FAM212B (11763350_a_at) / RFU PLEKHG5 (11743358_a_at) / Fold change /veh PLEKHG5 (11743358_a_at) / RFU ZSCAN30 (11745921_a_at) / Fold change /veh ZSCAN30 (11745921_a_at) / RFU CMKLR1 (11741424_a_at) / Fold change /veh CMKLR1 (11741424_a_at) / RFU LOC101060620 /// MAPK8IP1 (11723275_at) / Fold change /veh LOC101060620 /// MAPK8IP1 (11723275_at) / RFU SPTSSB (11747773_x_at) / Fold change /veh SPTSSB (11747773_x_at) / RFU PRSS12 (11739890_at) / Fold change /veh PRSS12 (11739890_at) / RFU BIN1 (11741810_x_at) / Fold change /veh BIN1 (11741810_x_at) / RFU WNT11 (11732464_a_at) / Fold change /veh WNT11 (11732464_a_at) / RFU C10orf10 (11716521_a_at) / Fold change /veh C10orf10 (11716521_a_at) / RFU C5orf56 (11738089_at) / Fold change /veh C5orf56 (11738089_at) / RFU CYB561 (11721691_x_at) / Fold change /veh CYB561 (11721691_x_at) / RFU ANKRD19P (11752326_a_at) / Fold change /veh ANKRD19P (11752326_a_at) / RFU OR2T12 /// OR2T33 /// OR2T8 (11738714_s_at) / Fold change /veh OR2T12 /// OR2T33 /// OR2T8 (11738714_s_at) / RFU VCAN (11748164_a_at) / Fold change /veh VCAN (11748164_a_at) / RFU JSRP1 (11732532_at) / Fold change /veh JSRP1 (11732532_at) / RFU KRTAP10-11 (11738290_x_at) / Fold change /veh KRTAP10-11 (11738290_x_at) / RFU MYO3A (11730013_a_at) / Fold change /veh MYO3A (11730013_a_at) / RFU EBF3 (11725865_a_at) / Fold change /veh EBF3 (11725865_a_at) / RFU CAMK2N1 (11719241_x_at) / Fold change /veh CAMK2N1 (11719241_x_at) / RFU C5orf56 (11738088_a_at) / Fold change /veh C5orf56 (11738088_a_at) / RFU OLFML3 (11715873_a_at) / Fold change /veh OLFML3 (11715873_a_at) / RFU LOC100653217 /// NTM (11731650_a_at) / Fold change /veh LOC100653217 /// NTM (11731650_a_at) / RFU MAPK11 (11762145_a_at) / Fold change /veh MAPK11 (11762145_a_at) / RFU FIZ1 (11724087_x_at) / Fold change /veh FIZ1 (11724087_x_at) / RFU OASL (11726364_x_at) / Fold change /veh OASL (11726364_x_at) / RFU SOX15 (11748057_x_at) / Fold change /veh SOX15 (11748057_x_at) / RFU CD79A (11719716_a_at) / Fold change /veh CD79A (11719716_a_at) / RFU HIST1H1D (11736915_at) / Fold change /veh HIST1H1D (11736915_at) / RFU CASKIN2 (11723855_a_at) / Fold change /veh CASKIN2 (11723855_a_at) / RFU LOC730098 (11760151_x_at) / Fold change /veh LOC730098 (11760151_x_at) / RFU OR4N2 (11742367_at) / Fold change /veh OR4N2 (11742367_at) / RFU PRRT2 (11749266_a_at) / Fold change /veh PRRT2 (11749266_a_at) / RFU SNX32 (11753110_a_at) / Fold change /veh SNX32 (11753110_a_at) / RFU CDHR5 (11726645_a_at) / Fold change /veh CDHR5 (11726645_a_at) / RFU RCAN1 (11760418_a_at) / Fold change /veh RCAN1 (11760418_a_at) / RFU FAM167A (11723789_a_at) / Fold change /veh FAM167A (11723789_a_at) / RFU FAM26E (11764081_at) / Fold change /veh FAM26E (11764081_at) / RFU ISYNA1 (11749810_s_at) / Fold change /veh ISYNA1 (11749810_s_at) / RFU ACY1 (11761880_at) / Fold change /veh ACY1 (11761880_at) / RFU 11764098_at / Fold change /veh 11764098_at / RFU SAMD14 (11745864_x_at) / Fold change /veh SAMD14 (11745864_x_at) / RFU NPB (11741838_a_at) / Fold change /veh NPB (11741838_a_at) / RFU TMPRSS6 (11731388_a_at) / Fold change /veh TMPRSS6 (11731388_a_at) / RFU KRTAP10-2 (11738614_at) / Fold change /veh KRTAP10-2 (11738614_at) / RFU ARHGAP8 /// PRR5-ARHGAP8 (11727945_x_at) / Fold change /veh ARHGAP8 /// PRR5-ARHGAP8 (11727945_x_at) / RFU KRTAP5-7 /// NADSYN1 (11734609_at) / Fold change /veh KRTAP5-7 /// NADSYN1 (11734609_at) / RFU RASL12 (11751679_a_at) / Fold change /veh RASL12 (11751679_a_at) / RFU CDKN2B (11736163_a_at) / Fold change /veh CDKN2B (11736163_a_at) / RFU PRF1 (11729649_at) / Fold change /veh PRF1 (11729649_at) / RFU, ZNF638 /// ZNF638-IT1 / Fold change vs veh, ZNF638 /// ZNF638-IT1 / RFU, PANK3 / Fold change vs veh, PANK3 / RFU, SH3YL1 / Fold change vs veh, SH3YL1 / RFU, ZEB2 / Fold change vs veh, ZEB2 / RFU, NRIP1 / Fold change vs veh, NRIP1 / RFU, PTTG1IP / Fold change vs veh, PTTG1IP / RFU, CAPN2 / Fold change vs veh, CAPN2 / RFU, MED14 / Fold change vs veh, MED14 / RFU, SNORA58 / Fold change vs veh, SNORA58 / RFU, C1orf63 / Fold change vs veh, C1orf63 / RFU, LRRFIP1 / Fold change vs veh, LRRFIP1 / RFU, NDUFAF7 / Fold change vs veh, NDUFAF7 / RFU, SLC12A2 / Fold change vs veh, SLC12A2 / RFU, IBTK / Fold change vs veh, IBTK / RFU, ESF1 / Fold change vs veh, ESF1 / Fold change vs veh, TMEM50B / RFU, TAOK1 / Fold change vs veh, TAOK1 / RFU, ACBD3 / Fold change vs veh, ACBD3 / RFU, TMA16 / Fold change vs veh, TMA16 / RFU, RWDD3 / Fold change vs veh, RWDD3 / RFU, BCAT1 / Fold change vs veh, BCAT1 / RFU, EDEM3 / Fold change vs veh, EDEM3 / RFU, TMEM33 / Fold change vs veh, TMEM33 / RFU, WDR75 / Fold change vs veh, WDR75 / RFU, AHCTF1 / Fold change vs veh, AHCTF1 / RFU, TFRC / Fold change vs veh, TFRC / RFU, ZDHHC17 / Fold change vs veh, ZDHHC17 / RFU, NOM1 / Fold change vs veh, NOM1 / RFU, ARL8B / Fold change vs veh, ARL8B / RFU, ZBTB11 / Fold change vs veh, ZBTB11 / RFU, TAMM41 / Fold change vs veh, TAMM41 / RFU, KIAA1704 /// LOC100996395 / Fold change vs veh, KIAA1704 /// LOC100996395 / RFU, ING1 / Fold change vs veh, ING1 / RFU, TRMT61B / Fold change vs veh, TRMT61B / RFU, FUBP3 / Fold change vs veh, FUBP3 / RFU, TP53 / Fold change vs veh, TP53 / RFU, TNKS2 / Fold change vs veh, TNKS2 / RFU, ZFP14 / Fold change vs veh, ZFP14 / RFU, ACTR2 / Fold change vs veh, ACTR2 / RFU, PPP3R1 / Fold change vs veh, PPP3R1 / RFU, PIK3R1 / Fold change vs veh, PIK3R1 / RFU, HNRNPA1 / Fold change vs veh, HNRNPA1 / RFU, RNF170 / Fold change vs veh, RNF170 / RFU, ZNF28 / Fold change vs veh, ZNF28 / RFU, RNGTT / Fold change vs veh, RNGTT / RFU, OGT / Fold change vs veh, OGT / RFU, BRD1 / Fold change vs veh, BRD1 / RFU, MARS / Fold change vs veh, MARS / RFU, ZNF655 / Fold change vs veh, ZNF655 / RFU, FAHD1 / Fold change vs veh, FAHD1 / RFU, BDP1 / Fold change vs veh, BDP1 / RFU, LRRCC1 / Fold change vs veh, LRRCC1 / RFU, ARID1A / Fold change vs veh, ARID1A / RFU, ZNF146 / Fold change vs veh, ZNF146 / RFU, ZNF330 / Fold change vs veh, ZNF330 / RFU, GPN3 / Fold change vs veh, GPN3 / RFU, C9orf123 / Fold change vs veh, C9orf123 / RFU, N4BP2L2 / Fold change vs veh, N4BP2L2 / RFU, ARFIP1 / Fold change vs veh, ARFIP1 / RFU, FAM179B / Fold change vs veh, FAM179B / RFU, BCL10 / Fold change vs veh, BCL10 / RFU, UHRF1BP1L / Fold change vs veh, UHRF1BP1L / RFU, BET1 / Fold change vs veh, BET1 / RFU, CNOT2 / Fold change vs veh, CNOT2 / RFU, ZNF268 / Fold change vs veh, ZNF268 / Fold change vs veh, ZNF507 / RFU, DGCR2 / Fold change vs veh, DGCR2 / RFU, WDSUB1 / Fold change vs veh, WDSUB1 / Fold change vs veh, HSP90B1 /// MIR3652 / RFU, ADSS / Fold change vs veh, ADSS / RFU, GK / Fold change vs veh, GK / RFU, ZNF148 / Fold change vs veh, ZNF148 / RFU, TAF9 / Fold change vs veh, TAF9 / RFU, SLC1A5 / Fold change vs veh, SLC1A5 / RFU, SLMO2 / Fold change vs veh, SLMO2 / RFU, ABCC4 / Fold change vs veh, ABCC4 / RFU, LOC101060439 /// RAP1B / Fold change vs veh, LOC101060439 /// RAP1B / RFU, RFX7 / Fold change vs veh, RFX7 / RFU, GTPBP10 / Fold change vs veh, GTPBP10 / RFU, CNEP1R1 / Fold change vs veh, CNEP1R1 / RFU, BIVM-ERCC5 /// ERCC5 / Fold change vs veh, BIVM-ERCC5 /// ERCC5 / RFU, ILF3 / Fold change vs veh, ILF3 / RFU 11762660_at / Fold change /veh 11762660_at / RFU VCAN (11757783_s_at) / Fold change /veh VCAN (11757783_s_at) / RFU DDX43 (11728927_at) / Fold change /veh DDX43 (11728927_at) / RFU KRT8 (11758188_x_at) / Fold change /veh KRT8 (11758188_x_at) / RFU NKD1 (11759106_at) / Fold change /veh NKD1 (11759106_at) / RFU SRD5A1 (11742802_a_at) / Fold change /veh SRD5A1 (11742802_a_at) / RFU TPSAB1 /// TPSB2 (11721975_s_at) / Fold change /veh TPSAB1 /// TPSB2 (11721975_s_at) / RFU GSTM3 (11746129_a_at) / Fold change /veh GSTM3 (11746129_a_at) / RFU IL23R (11737362_x_at) / Fold change /veh IL23R (11737362_x_at) / RFU TMEM51 (11727254_a_at) / Fold change /veh TMEM51 (11727254_a_at) / RFU PIWIL2 (11732686_x_at) / Fold change /veh PIWIL2 (11732686_x_at) / RFU ORM1 (11744905_x_at) / Fold change /veh ORM1 (11744905_x_at) / RFU CCDC152 (11743942_at) / Fold change /veh CCDC152 (11743942_at) / RFU ECM1 (11717891_a_at) / Fold change /veh ECM1 (11717891_a_at) / RFU IL23R (11748794_a_at) / Fold change /veh IL23R (11748794_a_at) / RFU TNFAIP8L3 (11732012_x_at) / Fold change /veh TNFAIP8L3 (11732012_x_at) / RFU MBOAT4 (11741988_at) / Fold change /veh MBOAT4 (11741988_at) / RFU 11764193_at / Fold change /veh 11764193_at / RFU TMEM53 (11763286_at) / Fold change /veh TMEM53 (11763286_at) / RFU MAGEB2 (11727129_at) / Fold change /veh MAGEB2 (11727129_at) / RFU TMEM200A (11744735_a_at) / Fold change /veh TMEM200A (11744735_a_at) / RFU CCDC152 (11751479_a_at) / Fold change /veh CCDC152 (11751479_a_at) / RFU FAM211A (11726209_a_at) / Fold change /veh FAM211A (11726209_a_at) / RFU RGS16 (11746705_a_at) / Fold change /veh RGS16 (11746705_a_at) / RFU VCAN (11755009_s_at) / Fold change /veh VCAN (11755009_s_at) / RFU RHOB (11743442_s_at) / Fold change /veh RHOB (11743442_s_at) / RFU RGS16 (11720943_a_at) / Fold change /veh RGS16 (11720943_a_at) / RFU RGS16 (11720944_at) / Fold change /veh RGS16 (11720944_at) / RFU, VPS4B / Fold change vs veh, VPS4B / RFU, CREB1 / Fold change vs veh, CREB1 / RFU, DNAJC13 / Fold change vs veh, DNAJC13 / RFU, GNAQ / Fold change vs veh, GNAQ / RFU, CDK5R1 / Fold change vs veh, CDK5R1 / RFU, ZRANB3 / Fold change vs veh, ZRANB3 / RFU, CUL4A / Fold change vs veh, CUL4A / RFU, CCNY / Fold change vs veh, CCNY / RFU, UFL1 / Fold change vs veh, UFL1 / RFU, COG3 / Fold change vs veh, COG3 / RFU, DIAPH2 / Fold change vs veh, DIAPH2 / RFU, SKA2 / Fold change vs veh, SKA2 / RFU, AFF3 / Fold change vs veh, AFF3 / RFU, LMF1 / Fold change vs veh, LMF1 / RFU, IPO11 / Fold change vs veh, IPO11 / RFU, DFFB / Fold change vs veh, DFFB / RFU, FOXP1 / Fold change vs veh, FOXP1 / RFU, CARD8 / Fold change vs veh, CARD8 / RFU, STRN3 / Fold change vs veh, STRN3 / RFU, ADK / Fold change vs veh, ADK / RFU, RASSF2 / Fold change vs veh, RASSF2 / RFU, WIPF1 / Fold change vs veh, WIPF1 / RFU, LARP1B / Fold change vs veh, LARP1B / RFU, RASA1 / Fold change vs veh, RASA1 / RFU, RB1 / Fold change vs veh, RB1 / RFU, PPFIA1 / Fold change vs veh, PPFIA1 / RFU, MAT2A / Fold change vs veh, MAT2A / RFU, CCT5 / Fold change vs veh, CCT5 / RFU, WDR92 / Fold change vs veh, WDR92 / RFU, CUX1 / Fold change vs veh, CUX1 / RFU, TTC7A / Fold change vs veh, TTC7A / RFU, TMEM135 / Fold change vs veh, TMEM135 / RFU, DEPTOR / Fold change vs veh, DEPTOR / RFU, CPM / Fold change vs veh, CPM / RFU, DNAJB6 / Fold change vs veh, DNAJB6 / RFU, CACNA2D3 / Fold change vs veh, CACNA2D3 / RFU, DTX4 / Fold change vs veh, DTX4 / RFU, TFCP2 / Fold change vs veh, TFCP2 / RFU, GMCL1 /// GMCL1P1 / Fold change vs veh, GMCL1 /// GMCL1P1 / RFU, AEBP2 / Fold change vs veh, AEBP2 / RFU, SNHG1 /// SNORD22 /// SNORD25 /// SNORD26 /// SNORD27 /// SNORD28 /// SNORD29 /// SNORD31 / Fold change vs veh, SNHG1 /// SNORD22 /// SNORD25 /// SNORD26 /// SNORD27 /// SNORD28 /// SNORD29 /// SNORD31 / Fold change (Aza/veh), C12orf56 (ProbeSet 11735607_a_at) / Fold change (ACY-1035/veh), C12orf56 (ProbeSet 11735607_a_at) / Fold change (Aza/veh), FGFR1OP (ProbeSet 11751329_s_at) / Fold change (ACY-1035/veh), FGFR1OP (ProbeSet 11751329_s_at) / Fold change (Aza/veh), VPS36 (ProbeSet 11739960_a_at) / Fold change (ACY-1035/veh), VPS36 (ProbeSet 11739960_a_at) / RFU SYPL1 (11715823_x_at) / Fold change /veh SYPL1 (11715823_x_at) / RFU IGFBP7 (11715501_s_at) / Fold change /veh IGFBP7 (11715501_s_at) / RFU REEP3 (11722064_at) / Fold change /veh REEP3 (11722064_at) / RFU IGLL1 (11728026_x_at) / Fold change /veh IGLL1 (11728026_x_at): dose or concentration left out as unconfirmed. To be noted: MV-4-11 cells, 48 hours.

Take `Nc1ccc(-c2cccs2)cc1NC(=O)c1ccc2c(c1)cc(C1CC1)n2CCN1CCOCC1` [ACY-1035]: the “Fold change /veh PLEKHG5 (11743358_a_at)” value was found to be 1.02.
